This note sets out measurements from publication PMC9241695, “Selective Metal Chelation by a Thiosemicarbazone Derivative Interferes with Mitochondrial Respiration and Ribosome Biogenesis in Candida albicans” (Microbiology Spectrum, 2022).

≈ marks a conversion by molar mass, not a printed value. Where two headings read alike, the source gives them in different places.

The subject of assay [1] is C. albicans CAF2-1, zap1Δ/Δ, zap1Δ/Δ+ pZAP1. The experiment in a line: Growth of zap1 mutant, complemented and wild-type strains under 19ak. It counts as cell-based, Candida albicans. As to the method: FIG 6 Effect of 19ak on ribosome biogenesis in C. albicans. (A to C) The wild strain CAF2-1, the mutant strain zap1Δ/Δ and its complemented strain zap1Δ/Δ+ pZAP1 were adjusted to 1 × 10^5 cells/mL in RPMI 1640 medium and treated with 0.25 or 0.5 μg/mL 19ak for 15 h at 30°C. Cell growth was monitored by detecting the optical density at 600 nm in a microplate reader. (A) Cells that were not treated with 19ak as a control. (B) Cells treated with 0.25 μg/mL 19ak. (C) Cells treated with 0.5 μg/mL 19ak. Each point represents the mean of three replicates. The OD600 values at the final detection point were used to analyze significant differences. (D) C. albicans zap1Δ/Δ and its complemented strain zap1Δ/Δ + pZAP1 were treated with 0.5 μg/mL 19ak for 6 h at 30°C. The transcription levels of several genes associated with ribosomal biosynthesis were determined by qPCR. The bars represent means ± SD from three independent experiments. *, P < 0.05; **, P < 0.01; ***, P < 0.001. ns, nonsignificance. (E) qPCR analysis of the expression of genes associated with iron and zinc homeostasis after TPEN treatment. C. albicans SC5314 was cultured in RPMI 1640 medium and treated with 0.05 μg/mL or 0.2 μg/mL TPEN for 6 h at 30°C for qPCR analysis.

Assay [2] deals with C. albicans CA1. The assay can be described thus: Microbroth dilution MIC80. In kind it is cell-based. The conditions noted are these: Candida albicans, CA1. A digest of the protocol: (§1)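 CLSI microbroth dilution in RPMI1640 using final drug concentrations of 0.0156–64 μg/mL. C. albicans inoculum was 1 × 10^3 CFU/mL, and Candida plates were incubated at 35°C for 24 h. MIC was read as visible growth inhibition versus the drug-free control, in duplicate.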
A general note: In broth dilution the organism is exposed to a series of concentrations in liquid medium.

Assay [3] relates to C. albicans YEM15. The experiment in a line: Microbroth dilution MIC80. In kind it is cell-based. Conditions: Candida albicans, YEM15. In a few lines: as §1
Assay [4] deals with C. albicans F5. The assay can be described thus: Microbroth dilution MIC80. In kind it is cell-based. Conditions: Candida albicans, F5. In a few lines: as §1
The subject of assay [5] is C. albicans YEM13. The assay can be described thus: Microbroth dilution MIC80. In kind it is cell-based. Conditions: Candida albicans. A digest of the protocol:
as §1

Assay [6] relates to C. tropicalis CT2. The experiment in a line: Microbroth dilution MIC80. In kind it is cell-based. Conditions: Candida tropicalis, CT2. In a few lines:
(§2)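 CLSI microbroth dilution in RPMI1640, inoculum 1 × 10^3 CFU/mL, compounds 0.0156–64 μg/mL final, 24 h at 35 °C. MIC read as visible growth inhibition versus control, in duplicate.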

Assay [7] deals with A. fumigatus 1161. The assay can be described thus: Microbroth dilution MIC80. In kind it is cell-based. The conditions noted are these: Aspergillus fumigatus, 1161. A digest of the protocol:
as §2

Assay [8] has as its system C. albicans CA3. The assay can be described thus: Microbroth dilution MIC80. Conditions: Candida albicans, CA3. It counts as cell-based. In a few lines:
as §1

Assay [9] relates to C. albicans 24g. The assay can be described thus: Microbroth dilution MIC80. In kind it is cell-based. Conditions: Candida albicans, 24G. A digest of the protocol: as §1
The subject of assay [10] is C. albicans 11f. The assay can be described thus: Microbroth dilution MIC80. In kind it is cell-based. Conditions: Candida albicans, 11F. In a few lines: as §1
Assay [11] concerns C. albicans 28I. The experiment in a line: Microbroth dilution MIC80. In kind it is cell-based. The conditions noted are these: Candida albicans, 28I. A digest of the protocol:
as §1

Assay [12] deals with C. albicans CA4. The assay can be described thus: Microbroth dilution MIC80. In kind it is cell-based. Conditions: Candida albicans, CA4. In a few lines:
as §1

Assay [13] relates to C. albicans 28A. The assay can be described thus: Microbroth dilution MIC80. In kind it is cell-based. The conditions noted are these: Candida albicans, 28A. In a few lines:
as §1

Assay [14] deals with C. albicans DSY654. The assay can be described thus: Microbroth dilution MIC80. It counts as cell-based. The conditions noted are these: Candida albicans. A digest of the protocol:
as §1

For assay [15], the system named is C. albicans 28D. The experiment in a line: Microbroth dilution MIC80. Conditions: Candida albicans, 28D. It counts as cell-based. A digest of the protocol:
as §1

Assay [16] has as its system C. neoformans 108. The experiment in a line: Microbroth dilution MIC80. It counts as cell-based. The conditions noted are these: Cryptococcus neoformans, 108. A digest of the protocol:
as §2

Assay [17] concerns C. albicans 11e. The assay can be described thus: Microbroth dilution MIC80. It counts as cell-based. Conditions: Candida albicans, 11E. In a few lines:
as §1

Assay [18] relates to C. albicans SC5314. The assay can be described thus: MIC of 19ak in the presence of H2O2. In kind it is cell-based. The conditions noted are these: Candida albicans, read-out: MIC against C. albicans SC5314 (Table S3). As to the method:
Influence of oxidant or antioxidant molecules on 19ak activity. The MIC of
19ak in the presence of 1–2 mM H2O2 was measured using the broth microdilution
assay as described above. […]

Assay [19] concerns C. parapsilosis CP001. The experiment in a line: Microbroth dilution MIC80. It counts as cell-based, Candida parapsilosis. The conditions noted are these: Lodderomyces parapsilosis, CP001. A digest of the protocol:
as §2

For assay [20], the system named is C. albicans SC5314. The assay can be described thus: Minimal fungicidal concentration (MFC). In kind it is cell-based. The conditions noted are these: Candida albicans, read-out: MFC against C. albicans SC5314.
In assay [21] the test system is C. krusei CK1. The assay can be described thus: Microbroth dilution MIC80. It counts as cell-based, Candida krusei. Conditions: Pichia kudriavzevii, CK1. In a few lines: as §2

The MIC80 is an inhibitory concentration at the 80% level, which refers to growth in some studies and to a panel of isolates in others. A lower MIC80 goes with higher susceptibility. The MIC is the lowest concentration found to suppress growth. For orientation: MFC means the lowest tested concentration that kills the fungus rather than only halting it. In the case of `C/C(=N\NC(=S)N(C)C)c1ccccn1` [Compound 19ak], the “Activity against CAF2-1, zap1Δ/Δ and complemented strain with exogenous Zn^2+” value in assay [1] (100 μM Zn^2+ added) is listed as “lost the activities”. Besides, the “Growth of zap1 mutant versus complemented strain” value in [1] (0.25 or 0.5 μg/mL, 15 h, 30°C) is “more severe growth defects”. The MIC80 in [2] was 0.25 µg/mL (≈ 1.12 µM); in assay [3], 0.25 µg/mL (≈ 1.12 µM); in [4] it was 0.5 µg/mL (≈ 2.25 µM); in [5], 0.5 µg/mL (≈ 2.25 µM); in assay [6], 0.5 µg/mL (≈ 2.25 µM); in assay [7], 0.5 µg/mL (≈ 2.25 µM). In addition, the MIC80 was 0.125 µg/mL (≈ 0.562 µM) in [8]; 0.25 µg/mL (≈ 1.12 µM) in assay [9]; 1 µg/mL (≈ 4.5 µM) in assay [10]; 0.125 µg/mL (≈ 0.562 µM) in assay [11]; 0.125 µg/mL (≈ 0.562 µM) in assay [12]; 0.125 µg/mL (≈ 0.562 µM) in assay [13]. The MIC80 in assay [14] is 0.125 µg/mL (≈ 0.562 µM); in assay [15], 0.125 µg/mL (≈ 0.562 µM); in assay [16], 0.25 µg/mL (≈ 1.12 µM); in assay [17] it was 1 µg/mL (≈ 4.5 µM); in [19], 0.125 µg/mL (≈ 0.562 µM); in assay [21], 0.125 µg/mL (≈ 0.562 µM). Also, the MIC in [18] (SC5314, +1 mM H2O2) worked out at 0.25 µg/mL; in assay [18] (SC5314, +2 mM H2O2), 0.5 µg/mL; in assay [18] (SC5314, without H2O2), 0.125 µg/mL. The MFC in assay [20] came to 64 µg/mL (≈ 288 µM).
